In US9790180B2, “Piperidine derivatives as HDAC1/2 inhibitors” (Acetylon Pharmaceuticals, Inc., priority 2014, dated 2017) one finds IC50 data, which are given here for 32 molecules.

Structures are written as SMILES.

Format in all cases: biochemical
The target in one assay is HDAC1 (Homo sapiens (Human), UniProt Q13547). Briefly: HDAC enzyme assay, HDAC1. Conditions: 24 hours pre-incubation with enzyme; read-out: IC50 (nM) HDAC1. How it is done:
(§1) Compounds for testing were diluted in DMSO to 50 fold the final concentration and a ten point three fold dilution series was made. The compounds were diluted in assay buffer (50 mM HEPES, pH 7.4, 100 mM KCl, 0.001% Tween-20, 0.05% BSA, 20 μM tris(2-carboxyethyl)phosphine) to 6 fold their final concentration. The HDAC enzymes (purchased from BPS Biosciences) were diluted to 1.5 fold their final concentration in assay buffer and pre-incubated with the compounds for 24 hours prior to addition of the substrate.
(§2) The substrate tripeptide substrate 3 (synthesized in house) for each enzyme was equal to the Km as determined by a substrate titration curve. The substrates were diluted in assay buffer at 6× their final concentration with 0.3 μM sequencing grade trypsin (Sigma). The substrate/trypsin mix was added to the enzyme/compound mix, the plate was shaken for 60 seconds and placed into a Spectramax M5 microtiter plate reader. The development of fluorescence was monitored for 30 min and the linear rate of the reaction was calculated. The IC50 was determined using Graph Pad Prism by a four parameter curve fit. The IC50 values obtained for the compounds of this invention are found in Table 1. Examples of the curves are found in FIGS. 1 and 4.

For another assay, the target named is HDAC2 (Homo sapiens (Human), UniProt Q92769). As to the kind of experiment: HDAC enzyme assay, HDAC2. Conditions: 24 hours pre-incubation with enzyme; read-out: IC50 (nM) HDAC2. How it is done:
as §1, §2

A further assay concerns the target HDAC3 (Homo sapiens (Human), UniProt O15379). Briefly: HDAC enzyme assay, HDAC3. Conditions: 24 hours pre-incubation with enzyme; read-out: IC50 (nM) HDAC3. The protocol:
as §1, §2

HDAC1, sequence (Q13547 whole entry): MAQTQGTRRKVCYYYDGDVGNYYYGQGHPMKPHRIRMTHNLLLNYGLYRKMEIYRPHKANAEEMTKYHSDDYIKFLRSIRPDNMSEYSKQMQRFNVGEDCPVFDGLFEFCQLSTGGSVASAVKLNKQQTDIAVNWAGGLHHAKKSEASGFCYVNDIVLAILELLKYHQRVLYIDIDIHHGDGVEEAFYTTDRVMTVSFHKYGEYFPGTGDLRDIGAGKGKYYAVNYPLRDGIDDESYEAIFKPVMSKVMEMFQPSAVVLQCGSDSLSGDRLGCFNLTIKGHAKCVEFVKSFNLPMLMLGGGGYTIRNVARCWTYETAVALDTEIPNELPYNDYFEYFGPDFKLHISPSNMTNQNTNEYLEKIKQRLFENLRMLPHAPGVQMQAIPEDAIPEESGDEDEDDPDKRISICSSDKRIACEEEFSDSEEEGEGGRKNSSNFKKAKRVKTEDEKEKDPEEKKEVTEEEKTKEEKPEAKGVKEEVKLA
HDAC2, sequence (Q92769 whole entry): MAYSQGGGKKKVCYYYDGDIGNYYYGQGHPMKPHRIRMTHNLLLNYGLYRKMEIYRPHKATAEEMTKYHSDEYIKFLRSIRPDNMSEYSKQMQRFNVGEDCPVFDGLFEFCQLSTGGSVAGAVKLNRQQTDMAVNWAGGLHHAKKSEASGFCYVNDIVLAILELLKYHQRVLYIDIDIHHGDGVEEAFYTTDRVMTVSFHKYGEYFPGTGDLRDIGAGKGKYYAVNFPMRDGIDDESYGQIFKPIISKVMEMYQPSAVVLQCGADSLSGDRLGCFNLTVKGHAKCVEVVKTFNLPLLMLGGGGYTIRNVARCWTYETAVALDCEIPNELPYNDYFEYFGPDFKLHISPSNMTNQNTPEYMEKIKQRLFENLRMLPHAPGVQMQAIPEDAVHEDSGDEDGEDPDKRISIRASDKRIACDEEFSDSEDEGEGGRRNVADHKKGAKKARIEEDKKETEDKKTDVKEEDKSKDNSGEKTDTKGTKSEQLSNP
HDAC3, sequence (O15379 whole entry): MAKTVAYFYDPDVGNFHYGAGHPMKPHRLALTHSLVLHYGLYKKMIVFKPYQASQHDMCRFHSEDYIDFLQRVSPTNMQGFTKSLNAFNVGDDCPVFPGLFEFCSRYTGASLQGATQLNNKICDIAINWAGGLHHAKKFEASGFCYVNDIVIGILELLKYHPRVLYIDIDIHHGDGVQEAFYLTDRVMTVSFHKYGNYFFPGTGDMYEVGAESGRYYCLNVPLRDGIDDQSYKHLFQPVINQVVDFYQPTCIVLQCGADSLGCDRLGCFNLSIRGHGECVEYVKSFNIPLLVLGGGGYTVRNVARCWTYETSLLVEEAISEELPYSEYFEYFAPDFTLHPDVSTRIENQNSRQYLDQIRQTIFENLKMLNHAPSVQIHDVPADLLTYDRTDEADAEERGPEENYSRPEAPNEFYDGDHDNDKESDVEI
HDAC3, sequence (Q9Y618 395-489 partner): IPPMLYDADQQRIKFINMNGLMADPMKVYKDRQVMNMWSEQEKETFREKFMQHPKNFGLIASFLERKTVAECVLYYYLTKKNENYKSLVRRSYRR

Consider `CC1(Nc2ncc(C(=O)Nc3cc(-c4cccs4)ccc3N)cn2)CCN(C(=O)Oc2ccccc2)CC1` [Compound 007], for which the half-maximal inhibitory concentration (IC50) worked out at 118 nM at HDAC1, 703 nM at HDAC2 and 929 nM at HDAC3.

For the molecule `CC1(Nc2ncc(C(=O)Nc3cc(-c4cccs4)ccc3N)cn2)CCN(C(=O)N2CCOCC2)CC1` [Compound 008], the 50% inhibitory concentration (IC50) was 9 nM on HDAC1, 37 nM at HDAC2 and 124 nM at HDAC3.

As for `Nc1ccc(-c2cccs2)cc1NC(=O)c1cnc(NC2CCN(C(=O)N3CCCCC3)CC2)nc1` [Compound 009], the IC50 on HDAC1 was 32 nM; on HDAC2, 145 nM; at HDAC3, 250 nM.

Turning to `CC1(Nc2ncc(C(=O)Nc3cc(-c4cccs4)ccc3N)cn2)CCN(C(=O)N2CCNCC2)CC1` [Compound 010], the figures for the IC50 at HDAC1 and on HDAC2 were 7.3 nM and 26 nM, respectively.

In the case of `CN1CCN(C(=O)N2CCC(C)(Nc3ncc(C(=O)Nc4cc(-c5cccs5)ccc4N)cn3)CC2)CC1` [Compound 011], the IC50 stood at 8.5 nM on HDAC1, 32 nM on HDAC2 and 201 nM on HDAC3.

For the molecule `CC1(Nc2ncc(C(=O)Nc3cc(-c4cccs4)ccc3N)cn2)CCN(C(=O)N2CCC(F)(F)CC2)CC1` [Compound 012], the 50% inhibitory concentration (IC50) on HDAC1 came out at 19 nM; at HDAC2, 177 nM; on HDAC3 it was 1270 nM.

In the case of `CC1(Nc2ccc(C(=O)Nc3cc(-c4cccs4)ccc3N)cc2)CCN(C(=O)N2CCCC2)CC1` [Compound 013], the IC50 worked out at 4 nM at HDAC1, 14 nM at HDAC2 and 412 nM at HDAC3.

Turning to `CC1(Nc2ncc(C(=O)Nc3cc(-c4cccs4)ccc3N)cn2)CCN(C(=O)N2CCC(O)CC2)CC1` [Compound 014], the IC50 is 63 nM at HDAC1, 299 nM at HDAC2 and above 2000 nM at HDAC3.

Turning to `CC1(Nc2ccc(C(=O)Nc3cc(-c4cccs4)ccc3N)cc2)CCN(C(=O)N2CCNCC2)CC1` [Compound 015], the results for the IC50 on HDAC1, on HDAC2 and at HDAC3 were 3.2 nM, 12 nM and 149 nM, respectively.

Regarding `CN1CCN(C(=O)N2CCC(C)(Nc3ccc(C(=O)Nc4cc(-c5cccs5)ccc4N)cc3)CC2)CC1` [Compound 016], the results for the IC50 at HDAC1, on HDAC2 and at HDAC3 were 3.2 nM, 13 nM and 145 nM, respectively.

For `CCC1(Nc2ccc(C(=O)Nc3cc(-c4cccs4)ccc3N)cc2)CCN(C(=O)N2CCOCC2)CC1` [Compound 017], the figures for the concentration for half-maximal inhibition (IC50) at HDAC1, on HDAC2 and on HDAC3 were 18 nM, 99 nM and 1740 nM, respectively.

Consider `Nc1ccc(-c2cccs2)cc1NC(=O)c1cnc(N2CCCC23CCN(C(=O)N2CCCC2)CC3)nc1` [Compound 018], for which the concentration for half-maximal inhibition (IC50) on HDAC1 stood at 12 nM; at HDAC2, 78 nM; on HDAC3 it was 516 nM.

`Nc1ccc(-c2cccs2)cc1NC(=O)c1ccc(NC2CCN(C(=O)N3CCOCC3)CC2)cc1` [Compound 020]: the 50% inhibitory concentration (IC50) at HDAC1 came out at 3.7 nM; on HDAC2, 17 nM; at HDAC3, 304 nM.

For the molecule `Nc1ccc(-c2cccs2)cc1NC(=O)c1ccc(NC2CCN(C(=O)C3CCCCC3)CC2)cc1` [Compound 021], the half-inhibitory concentration (IC50) at HDAC1 is 15 nM; on HDAC2, 72 nM; at HDAC3, 555 nM.

`Nc1ccc(-c2cccs2)cc1NC(=O)c1ccc(NC2CCN(C(=O)C3CCOCC3)CC2)cc1` [Compound 022]: the IC50 turned out to be 5 nM at HDAC1, 18 nM on HDAC2 and 203 nM at HDAC3.

As for `CCC1(Nc2ccc(C(=O)Nc3cc(-c4cccs4)ccc3N)cc2)CCN(C(=O)N2CCNCC2)CC1` [Compound 023], the IC50 on HDAC1 turned out to be 3.9 nM; at HDAC2 it was 20 nM; on HDAC3, 267 nM.

With `Nc1ccc(-c2cccs2)cc1NC(=O)c1ccc(NC2CCN(C(=O)C3(O)CCCCC3)CC2)cc1` [Compound 024], the figures for the IC50 at HDAC1, on HDAC2 and at HDAC3 were 6 nM, 26 nM and 287 nM, respectively.

In the case of `Nc1ccc(-c2cccs2)cc1NC(=O)c1ccc(NC2CCN(C(=O)C3(O)CCCC3)CC2)cc1` [Compound 025], the half-inhibitory concentration (IC50) stood at 7 nM at HDAC1, 26 nM on HDAC2 and 355 nM on HDAC3.

Turning to `CN1CCC(Nc2ncc(C(=O)Nc3cc(-c4cccs4)ccc3N)cn2)(c2ccccc2)CC1` [Compound 026], the IC50 was 10 nM on HDAC1, 72 nM on HDAC2 and 315 nM at HDAC3.

For `Nc1ccc(-c2cccs2)cc1NC(=O)c1cnc(NC2CCN(c3ccccc3)CC2)nc1` [Compound 027], the IC50 is 121 nM on HDAC1, 690 nM at HDAC2 and above 2000 nM on HDAC3.

For `Nc1ccc(-c2cccs2)cc1NC(=O)c1ccc(NC2CCN(c3ccccc3)CC2)cc1` [Compound 028], the values for the IC50 on HDAC1, at HDAC2 and at HDAC3 were 74 nM, 443 nM and above 2000 nM, respectively.

As for `CC1(Nc2ccc(C(=O)Nc3cc(-c4ccncc4)ccc3N)cc2)CCN(C(=O)N2CCOCC2)CC1` [Compound 029], the values for the IC50 on HDAC2 and on HDAC3 were 17 nM and 541 nM, respectively.

As to `CC1(Nc2ccc(C(=O)Nc3cc(-c4ccncc4)ccc3N)cc2)CCN(C(=O)N2CCCC2)CC1` [Compound 030], the IC50 on HDAC1 was 7.1 nM; on HDAC2, 9.4 nM; at HDAC3, 466 nM.

Turning to `CC1(Nc2ccc(C(=O)Nc3cc(-c4cccnc4)ccc3N)cc2)CCN(C(=O)N2CCOCC2)CC1` [Compound 031], the results for the IC50 at HDAC1, on HDAC2 and on HDAC3 were 91 nM, 71 nM and 264 nM, respectively.

`Nc1ccc(-c2ccncc2)cc1NC(=O)c1ccc(NC2CCN(C(=O)N3CCCC3)CC2)cc1` [Compound 032]: the half-maximal inhibitory concentration (IC50) came out at 17 nM at HDAC1, 20 nM at HDAC2 and 397 nM at HDAC3.

Turning to `Nc1ccc(-c2ccccc2)cc1NC(=O)c1cnc(N(c2ccccc2)C2CCN(C(=O)Cc3c[nH]c4ccccc34)CC2)nc1` [Compound 034], the results for the IC50 on HDAC1, at HDAC2 and on HDAC3 were 93 nM, 346 nM and above 2000 nM, respectively.

On to `Cc1[nH]c2ccccc2c1CC(=O)N1CCC(N(c2ccccc2)c2ncc(C(=O)Nc3cc(-c4ccccc4)ccc3N)cn2)CC1` [Compound 036], for which the IC50 at HDAC1 is 74 nM; on HDAC2 it was 996 nM; on HDAC3, above 2000 nM.

In the case of `CC1(Nc2ccc(C(=O)Nc3cc(-c4ccccc4)ccc3N)cc2C2CC2)CCN(C(=O)N2CCOCC2)CC1` [Compound 037], the figures for the concentration for half-maximal inhibition (IC50) at HDAC1, on HDAC2 and at HDAC3 were 432 nM, 377 nM and 1860 nM, respectively.

Regarding `Nc1ccc(-c2ccccc2)cc1NC(=O)c1cnc(NC2CCNc3ccccc32)nc1` (stereo not shown) [Compound 038], the IC50 is 101 nM on HDAC1, 319 nM on HDAC2 and above 2000 nM at HDAC3.

For the molecule `Nc1ccc(-c2ccccc2)cc1NC(=O)c1cnc(NC2CCNCC2)nc1` [Compound 039], the results for the IC50 on HDAC1, at HDAC2 and at HDAC3 were 17 nM, 59 nM and 321 nM, respectively.

Consider `CN1CCC(Nc2ncc(C(=O)Nc3cc(-c4ccccc4)ccc3N)cn2)CC1` [Compound 040], for which the 50% inhibitory concentration (IC50) is 8 nM on HDAC1, 39 nM on HDAC2 and 277 nM on HDAC3.

For the molecule `CN1CCC(Nc2ncc(C(=O)Nc3cc(-c4ccccc4)ccc3N)cn2)c2ccccc21` (stereo not shown) [Compound 042], the IC50 is 210 nM on HDAC1, 714 nM at HDAC2 and above 2000 nM on HDAC3.

One may read the IC50 as the concentration that inhibits the measured activity by half.
